Test results from patent US20260217656A1, “Compounds Affecting KRAS” (UNIVERSITAT DE BARCELONA, priority 2022, published 2026).

Key:
Type in all cases: cell-based, human
hTERT-RPE cells [1] = experiment: MTS cell viability assay, hTERT-RPE; conditions: non-transformed hTERT-RPE cells, at approximately 80 μM
From the text: (§1) DLD-1 (KRASWT/G13D) (clone V15, #HD PAR-086) colorectal adenocarcinoma cell line and DLD-1 knockout of mutant KRAS allele, DLD-1 KO (KRASWT/−) (clone DWT7, #HD105-002), were obtained from Horizon Discovery Ltd. (Cambridge, UK). hTERT-RPE (KRASWT/WT) immortalized retinal pigment epithelial human cell line was obtained from the […] (ATCC). DLD-1 KO cells stably expressing HA-KRAS G12V were previously generated in our laboratory (Cabot et al., 2021). All cells were grown in DMEM-HAM s F12 (1:1) supplemented with 10% foetal bovine serum (Biological Industries, Israel), penicillin, streptomycin, and nonessential amino acids. Cells were tested once per month for mycoplasma contamination.
10,000 cells in 50 µL of 10% FBS-containing medium, were cultured for 24 hours and then treated with the compounds (50 μL final volume) for 48 h hours in each well of a 96-well plate (100 μL final volume). MTS viability assay (CellTiter 96® Aqueous One Solution Cell Proliferation Assay, Promega G3580) was assessed following the company conditions. The absorbance of each well was measured with a multimode plate reader (Spark, Tecan) at 490 nm. The percentage of cell viability was calculated by dividing the absorbance of each well by the average absorbance of the control wells. […]

DLD-1-KO cells = experiment: Cleaved caspase-3 Western blot, DLD-1-KO; conditions: DLD-1-KO cells treated 34 h or 48 h
Method: (§2) FIG. 6C is a blot showing extracts of DLD-1, DLD-1-KO and RPE cells at 34 h. and 48 h. DLD-1 cells treated with P14B for 36 h and 48 h were lysed and the expression of the apoptosis marker cleaved caspase-3 was analyzed by Western blot. Cells treated with the apoptosis inducer palmitic acid (PA) were used as a positive control.
(§3) Proteins were resolved by SDS-PAGE, transferred onto PVDF membranes (Immobilon-P, Millipore) and Western blot was performed as previously described (Cabot et al, Oncogene 2021). […]
(§4) Since both inhibition and sustained activation of RAS signaling are related to a decrease in cell survival, we analyzed the viability of the CRC cell lines DLD-1 (expressing oncogenic KRAS) and DLD-1-KO (oncogenic KRAS allele deleted), and the non-transformed cell line hTERT-RPE. […] The effect of P14B in DLD-1 cells cultured in 3D conditions was also determined. […]

DLD-1 cells = experiment: 3D on-top Matrigel assay
Method: FIG. 6B is a series of images of cells. In total 2.5×10^4 DLD-1 cells were cultured on top of a thin basement membrane matrix (Matrigel) overlaid with a dilute solution of this basement membrane matrix (3D on-top Matrigel assay). At the time of seeding or 24 h later, cells were treated with P14B ([…] after seeding the colonies that had formed were analysed. Representative phase-contrast images are shown. All scale bars, […]
3D on-top Matrigel assay was performed as described in (Cabot et al., 2021).
Since both inhibition and sustained activation of RAS signaling are related to a decrease in cell survival, we analyzed the viability of the CRC cell lines DLD-1 (expressing oncogenic KRAS) and DLD-1-KO (oncogenic KRAS allele deleted), and the non-transformed cell line hTERT-RPE. […] At the IC50 of approximately 80 μM for DLD-1 cells, the viability of DLD-1-KO and of non-transformed cells was not affected (FIG. 6A). […] The effect of P14B in DLD-1 cells cultured in 3D conditions was also determined. […] Consequently, we conclude that P14B selectively reduces the viability of CRC cells expressing oncogenic KRAS, causing minor effects if these cells have been knocked out for oncogenic KRAS or in non-transformed cells. Thereby, P14B might be considered as an inducer of apoptosis in CRC with oncogenic KRAS.

hTERT-RPE cells [2] = experiment: Cleaved caspase-3 Western blot, hTERT-RPE; conditions: hTERT-RPE cells treated 34 h or 48 h
Method: as §2, §3, §4

[3] = tested on: ERK and AKT in hTERT-RPE cells; experiment: Western blot of AKT and ERK activation in serum-starved hTERT-RPE cells; conditions: 100 μM
From the text: as §1, with “Cells were tested once per month for mycoplasma contamination.” left out
(§5) For analysis of RAS signalling, cells were lysed in a buffer containing 67 mM Tris-HCl pH 6.8 and 2% SDS and then the samples were heated at 97° C. for 15 minutes. Protein concentration of the lysates was assessed using the Lowry method. […]
(§6) Comparison of Ras signaling between DLD-1, DLD-1-KO and hTERT-RPE cells treated with P14B since important differences were observed between the viability of cells treated with P14B depending on their expression or lack of expression of oncogenic KRAS, we further studied whether these discrepancies were reflected also in KRAS downstream signaling. Serum-starved cells (0.1% FCS) were treated with P14B (100 μM) and activation of AKT and ERK was evaluated by WB. […]

[4] = tested on: ERK and AKT in DLD-1-KO cells; experiment: Western blot of AKT and ERK activation in serum-starved DLD-1-KO cells; conditions: DLD-1-KO serum-starved cells, 100 μM
From the text: as §1, with “Cells were tested once per month for mycoplasma contamination.” left out
as §5, §6

COc1ccc(C(c2c(C)n[nH]c2O)c2c(C)n[nH]c2O)cc1Oc1ccc([N+](=O)[O-])cc1 [Example P14B] was tested, and the cell viability (hTERT-RPE cells [1]) was “not affected”, the “cleaved caspase-3 expression” value (DLD-1-KO cells) was “undetectable” and the “size of the colonies in Matrigel” value (DLD-1 cells; P14B added 24 h after seeding, 40 μM) was “clear reduction in the size of the colonies”. The “capacity to form colonies in Matrigel” value (DLD-1 cells; P14B added when seeding the cells, 10 μM) was “drastic reduction in the capacity to form colonies”, the “cleaved caspase-3 expression” value (hTERT-RPE cells [2]) was “undetectable” and the “AKT and ERK phosphorylation” value [3] was “no significant increase”. For the same compound, the “AKT and ERK activation” value [4] was “AKT and ERK activation by P14B was also observed” and the “levels of ERK phosphorylation compared with 10% FBS treatment” value [4] was “significantly lower”.
